Test [1] has as its system Escherichia coli. Nature of the test: Antibacterial activity against Escherichia coli after 24 hrs by broth microdilution method. It counts as functional. Background: In broth dilution the organism is exposed to a series of concentrations in liquid medium.
Test [2] concerns Staphylococcus epidermidis. Nature of the test: Antibacterial activity against Staphylococcus epidermis after 24 hrs by broth microdilution method. It counts as functional.
The test system of test [3] is Jurkat. Nature of the test: (§1) Effect on NF-kappaB expressed in Jurkat 5.1 cells assessed as inhibition of TNF-alpha-induced HIV1-LTR transactivation preincubated for 15 mins by luciferase gene reporter assay. Type of test: cell-based. Background: Reporter assays use an easily measured gene product as a stand-in for the process of interest.
The nature of test [4]: Effect on NF-kappaB expressed in HeLa-Tet-On cells assessed as inhibition of doxycyclin-induced HIV1-LTR transactivation preincubated for 15 mins by luciferase gene reporter assay. Type of test: cell-based.
The test system of test [5] is Jurkat. Nature of the test: Effect on NF-kappaB expressed in Jurkat 5.1 cells assessed as inhibition of TNF-alpha-induced IkappaBalpha degradation at 10 uM preincubated for 15 mins by Western blot. Type of test: cell-based.
Test [6] deals with Jurkat. Kind of test: Effect on NF-kappaB expressed in Jurkat 5.1 cells assessed as inhibition of TNF-alpha-induced IkappaBalpha phosphorylation at 10 uM preincubated for 15 mins by Western blot. Type of test: cell-based.
Test [7] in a line: as §1. It counts as cell-based.

Converted amounts (≈) assume the structure as drawn. The source made the active and inactive calls. The calls are words filed in the database; no cut-off is given here.

Consider `CC(C)=CCC/C(C)=C/CCC1(C)CC(=O)c2cc(C(=O)O)ccc2O1` (configuration not stated), for which the results for the MIC in test [1] and in test [2] were 100 µg/mL (≈ 281 µM) and 50 µg/mL (≈ 140 µM), respectively. In test [3], the outcome was inactive.

For the molecule `COc1ccc(/C=C/C(=O)c2c(O)cc(OC)c(OC)c2OC)cc1OC`, the MIC in test [1] and in test [2] was 10 µg/mL (≈ 26.7 µM) each time. Also, the result in test [3] was inactive.

For `CC(C)=CCC/C(C)=C/CC/C(C)=C/Cc1cc(C(=O)O)ccc1O`, the outcome in test [3] was inactive.

For the molecule `CC1(C)S[C@@H]2[C@H](NC(=O)[C@H](N)c3ccccc3)C(=O)N2[C@H]1C(=O)O` [AMPICILLIN], the values for the MIC in test [1] and in test [2] were 5 µg/mL (≈ 14.3 µM) and 1 µg/mL (≈ 2.86 µM), respectively.

Take `CCCCCCCCC/C=C/CCCc1ccc(O)cc1` [OBLIQUOL A]: the MIC in test [1] stood at 5 µg/mL (≈ 17.3 µM); in test [2], 2.5 µg/mL (≈ 8.67 µM).

Regarding `CCCCCCCCC/C=C/CCCc1ccc(O)c(O)c1` [OBLIQUOL B], the minimum inhibitory concentration (MIC) in test [1] and in test [2] was 5 µg/mL (≈ 16.4 µM) each time. Besides, the outcome in test [4] was inactive. Moreover, the outcome in test [5] and in test [6] was Active. In addition, in test [7], the IC50 came out at 5 µM.

For orientation: MIC means the least concentration at which growth counts as inhibited. Lower therefore signals inhibition by little substance. In general, IC50 refers to the midpoint of a concentration-inhibition curve.

Source of the values: ChEMBL document CHEMBL1157155, “Bioactive alkenylphenols from Piper obliquum” (Bioorg Med Chem, 2008).
